Data taken from paper PMC7617869, “Molecular glues that inhibit deubiquitylase activity and inflammatory signaling” (Nature Structural & Molecular Biology, 2025).
Several values for one entry are separate records, joined by “and”; a condition that tells them apart may be missing. Equal values may be shown once.

What was measured:
DrBRISCΔNΔC = DrBRISCΔNΔC IQF DUB activity assay; format: biochemical, zebrafish (Danio rerio)
Experimental: (§1) IQF assays were performed in DUB reaction buffer containing 50 mM HEPES–NaOH pH 7.0, 100 mM NaCl, 0.1 mg ml^−1 BSA, 1 mM DTT and 0.03% v/v Brij-35. […] The final concentration of BRISC WT, all BRISC mutants, HsBRISCΔLoop, MmBRISC and DrBRISCΔNΔC was 1 nM. Other enzymes were tested at the following concentrations: 5 nM ARISC (FL), 10 nM CfBRISCΔNΔC, 250 nM AMSH* (ref. [43]), 500 nM USP2 and 1 μM trypsin (Sigma, 9002-07-7). For Michaelis–Menten experiments, 1 nM BRISC with 0–1 μM IQF K63-linked diubiquitin substrate was used. Michaelis–Menten analyses and Lineweaver–Burk plots were calculated using GraphPad Prism (version 9.0).
(§2) To assess enzymatic activity, BRISC complexes were diluted to concentrations between 1 nM and 50 nM. […] Then, 20-μl enzyme reactions were carried out in 384-well black flat-bottom low-flange plates (Corning, 35373). DUB activity was measured using IQF K63-linked diubiquitin (LifeSensors, DU6303) at 50 nM. Cleaved diubiquitin was monitored by measuring fluorescence intensity (excitation, 544 nm; emission, 575 nm; dichroic mirror, 560 nm). Fluorescence intensity was measured every minute for 30 min at 30 °C. Fluorescence intensity units were plotted against time to generate a linear reaction progress curve, where the initial velocity (V0) corresponds to the gradient of the curve (typically achieved within 15 min). IC50 values were calculated using the GraphPad Prism (version 9.0) built-in dose–response equation for inhibitor concentration versus response (variable slope).

BRISC BRCC36 L169R = BRISC BRCC36 L169R (Homo sapiens, UniProt P46736+Q15018+Q9NXR7, L169R); assay: BRISC mutant IQF assay: BRCC36 L169R; format: biochemical
Experimental: as §1, §2

BRISC BRCC45 R137A+F140A = BRISC BRCC45 R137A+F140A (Homo sapiens, UniProt P46736+Q15018+Q9NXR7, F140A/R137A); assay: BRISC mutant IQF assay: BRCC45 R137A+F140A; format: biochemical
Experimental: as §1
To assess enzymatic activity, BRISC complexes were diluted to concentrations between 1 nM and 50 nM. […] DUB activity was measured using IQF K63-linked diubiquitin (LifeSensors, DU6303) at 50 nM. Cleaved diubiquitin was monitored by measuring fluorescence intensity (excitation, 544 nm; emission, 575 nm; dichroic mirror, 560 nm). Fluorescence intensity was measured every minute for 30 min at 30 °C. Fluorescence intensity units were plotted against time to generate a linear reaction progress curve, where the initial velocity (V0) corresponds to the gradient of the curve (typically achieved within 15 min). IC50 values were calculated using the GraphPad Prism (version 9.0) built-in dose–response equation for inhibitor concentration versus response (variable slope).

[1] = FX-171-C 0.035 μM, read-out: Normalised V0

IC50 (BRISC BRCC36 L169R): 75 µM | reduction of inhibition over wild-type complex (BRISC BRCC36 L169R): > 100 fold | remaining activity at 0.0035 µM (BRISC BRCC36 L169R; FX-171-C 0.0035 μM, read-out: Normalised V0): 98.8% | remaining activity at 0.035 µM (BRISC BRCC36 L169R; [1]): 96.8% | remaining activity at 0.35 µM (BRISC BRCC36 L169R; FX-171-C 0.35 μM, read-out: Normalised V0): 93.7% | remaining activity at 3.1 µM (BRISC BRCC36 L169R; FX-171-C 3.1 μM, read-out: Normalised V0): 89.5% | remaining activity at 25 µM (BRISC BRCC36 L169R; FX-171-C 25 μM, read-out: Normalised V0): 88% | IC50 (BRISC BRCC45 R137A+F140A): 52 µM | remaining activity at 0.035 µM (BRISC BRCC45 R137A+F140A; [1]): 79.9%
SMILES: O=C(NC1C2CNCC21)c1nn(C(=O)c2c(Cl)cccc2Cl)cc1NC(=O)c1c(Cl)cccc1Cl (stereo not drawn) [FX-171-C]
Normalised V0 (DrBRISCΔNΔC; FX-171-C 0.013 μM): 0.983 and 1.045 and 1.007 and 1.076 and 0.9046 and 1 | Normalised V0 (DrBRISCΔNΔC; FX-171-C 0.02 μM): 0.9073 and 0.9513 and 0.9154 | Normalised V0 (DrBRISCΔNΔC; FX-171-C 0.0399999 μM): 0.972 and 1.086 and 0.9939 | Normalised V0 (DrBRISCΔNΔC; FX-171-C 0.0599997 μM): 1 and 1.042 and 0.951 | Normalised V0 (DrBRISCΔNΔC; FX-171-C 0.0799994 μM): 1.257 and 1.072 and 1.014 | Normalised V0 (DrBRISCΔNΔC; FX-171-C 0.119998 μM): 0.9667 and 1.1184 and 0.9769 | Normalised V0 (DrBRISCΔNΔC; FX-171-C 0.199996 μM): 1.0445 and 1.023 and 0.9962 | Normalised V0 (DrBRISCΔNΔC; FX-171-C 0.499975 μM): 0.9714 and 1.052 and 0.9507 | Normalised V0 (DrBRISCΔNΔC; FX-171-C 0.799937 μM): 1.009 and 0.9333 and 0.8977 | Normalised V0 (DrBRISCΔNΔC; FX-171-C 1.25984 μM): 0.9862 and 1.093 and 0.9451 | Normalised V0 (DrBRISCΔNΔC; FX-171-C 1.9996 μM): 0.9182 and 0.9951 and 0.8213 | Normalised V0 (DrBRISCΔNΔC; FX-171-C 3.159 μM): 1.042 and 0.9998 and 0.8593 | Normalised V0 (DrBRISCΔNΔC; FX-171-C 5.19739 μM): 0.6448 and 0.9953 and 0.847 | Normalised V0 (DrBRISCΔNΔC; FX-171-C 7.99364 μM): 0.9454 and 0.9127 and 0.9517 | Normalised V0 (DrBRISCΔNΔC; FX-171-C 12.7839 μM): 0.9358 and 1.024 and 0.8831 | Normalised V0 (DrBRISCΔNΔC; FX-171-C 19.96 μM): 0.6505 and 0.8985 and 0.8711 | Normalised V0 (DrBRISCΔNΔC; FX-171-C 31.4999 μM): 0.752 and 0.7818 and 0.7739 | Normalised V0 (DrBRISCΔNΔC; FX-171-C 50.147 μM): 0.6953 and 0.6278 and 0.7138 | Normalised V0 (DrBRISCΔNΔC; FX-171-C 79.7601 μM): 0.6671 and 0.5066 and 0.3963 | Normalised V0 (DrBRISCΔNΔC; FX-171-C 125.99 μM): 0.4739 and 0.3651 and 0.4262 | Normalised V0 (DrBRISCΔNΔC; FX-171-C 199.922 μM): 0.313 and 0.2853 and 0.3043
